Data taken from patent US20070026080A1, “Manufacturing process for tigecycline” (Wyeth, priority 2005, published 2007).

Assay: Strength and degradation profile of tigecycline 20 mg/mL bulk solutions by reversed phase HPLC (effect of temperature, time, pH, dissolved oxygen; Runs A to O)
Assay type: physicochemical
Conditions: 8° C.
Procedure: The contents of the sample vials are dissolved in diluent. The sample solution is diluted, if necessary, and chromatographed on a reversed phase column using gradient elution. Impurities are determined by comparing the impurity peak areas in the sample preparation chromatogram to the average area of tigecycline peaks in the standard preparation chromatograms obtained concomitantly.
Chromatographic Column—Length about 15 cm, inside diameter about 4.6 mm, packed with Inertsil ODS2, 5 μm size particles or equivalent.
Detector—Ultraviolet spectrophotometric detector capable of operating at 248 nm with a sensitivity of about 0.5 absorbance units full scale.
The results of additional studies to investigate the effect of processing parameters such as temperature, time, and dissolved oxygen content on the purity profile of tigecycline solutions using the following materials, methods and procedures are presented in Tables A to O.
The experiments were run in plastic glove bags under normal laboratory light conditions. Plastic glove boxes will be used to control the headspace of the beakers. The batch size was 200 mL. • 1. Prepare the glove bag with a mixture of nitrogen and air to achieve an oxygen level in the solution as per the design. • 2. Place the jacketed beaker on the magnetic stirrer. Connect it to the cooler. Set the cooler to the desired set point. • 3. Add 200 mL of SWFI in to the beaker. Allow equilibrating. Measure the temperature and oxygen content. When it reaches the desired condition, add accurately weighed API and mix until dissolved. If necessary use spatula to aid dissolution. For pH adjustments, use 4 mL of either 0.1N NaOH or 0.1N HCl and 196 mL of WFI for manufacture. • 4. After complete dissolution, Transfer about 5.5 mL of Solution in vials and stopper them. These vials will be stoppered at the appropriate headspace conditions. Place the vials in appropriate temperature conditions. • 5. Sample the vials at 1, 4, 8, 10, 12 and 24 hours. Send the samples for analysis. Freeze the 10, 12 and 24 samples at −20° C. for analysis the following day. • 6. Measure pH and record color of the solution at each time point. Results
The 1-hour samples were taken directly from the beakers. Samples for later time points were collected in stoppered vials processed in the atmosphere of the bag in order to simulate the headspace conditions then placed in water baths or refrigerator to maintain there respective temperature conditions. This was done to maintain safety in the lab. Disposable plastic glove bags require constant flow of a mixture of nitrogen and air to maintain headspace oxygen level that will result in the desired dissolved oxygen (DO) content in the sample. The pH of samples was measured at each sample points.
Strength and degradation profile was analyzed by HPLC as described above. […] Degradation was slightly higher at higher temperature condition.

[1] = Run #M, pH 7.7, Oxygen = 0.1 mg/L, 10 Hrs
[2] = Run #M, pH 7.7, Oxygen = 0.1 mg/L, 12 Hrs
[3] = Run #M, pH 7.7, Oxygen = 0.1 mg/L, 24 Hrs
[4] = Run #N, pH 8.2, Oxygen = 0.1 mg/L, 1 Hrs
[5] = Run #N, pH 8.2, Oxygen = 0.1 mg/L, 1R Hrs
[6] = Run #N, pH 8.2, Oxygen = 0.1 mg/L, 4 Hrs

**Q.** What does the source list for `CN(C)c1cc(NC(=O)CNC(C)(C)C)c(O)c2c1C[C@H]1C[C@H]3[C@H](N(C)C)C(O)=C(C(N)=O)C(=O)[C@@]3(O)C(O)=C1C2=O` [Tigecycline]?
**A.** RRT 1.12 [1]: BRL (BRL means below reporting limit (meaning less than 0.05% of tigecycline peak)); RRT 1.45 [1]: 0.07%; RRT 1.58 [1]: BRL (BRL means below reporting limit (meaning less than 0.05% of tigecycline peak)); RRT 1.64 Mino [1]: 0.09%; RRT 1.67 MW = 556 [1]: (<0.05) %; RRT 1.85 MW = 597 [1]: 0.08%; Strength [1]: 19.240 mg/mL; Total [1]: 0.71%; RRT 0.12 MW = 633 [2]: BRL (BRL means below reporting limit (meaning less than 0.05% of tigecycline peak)); RRT 0.23 MW = 572 [2]: BRL (BRL means below reporting limit (meaning less than 0.05% of tigecycline peak)); RRT 0.50 MW = 601 [2]: BRL (BRL means below reporting limit (meaning less than 0.05% of tigecycline peak)); RRT 0.55 MW = 583 [2]: 0.07%; RRT 0.58 [2]: BRL (BRL means below reporting limit (meaning less than 0.05% of tigecycline peak)); RRT 0.64 9-Amino [2]: BRL (BRL means below reporting limit (meaning less than 0.05% of tigecycline peak)); RRT 0.74 Epimer [2]: 0.27%; RRT 0.76 [2]: 0.05%; RRT 0.78 MW = 557 [2]: BRL (BRL means below reporting limit (meaning less than 0.05% of tigecycline peak)); RRT 1.12 [2]: BRL (BRL means below reporting limit (meaning less than 0.05% of tigecycline peak)); RRT 1.45 [2]: 0.07%; RRT 1.58 [2]: BRL (BRL means below reporting limit (meaning less than 0.05% of tigecycline peak)); RRT 1.64 Mino [2]: 0.12%; RRT 1.67 MW = 556 [2]: 0.07%; RRT 1.85 MW = 597 [2]: 0.08%; Strength [2]: 19.240 mg/mL; Total [2]: 0.73%; RRT 0.12 MW = 633 [3]: BRL (BRL means below reporting limit (meaning less than 0.05% of tigecycline peak)); RRT 0.23 MW = 572 [3]: BRL (BRL means below reporting limit (meaning less than 0.05% of tigecycline peak)); RRT 0.50 MW = 601 [3]: BRL (BRL means below reporting limit (meaning less than 0.05% of tigecycline peak)); RRT 0.55 MW = 583 [3]: BRL (BRL means below reporting limit (meaning less than 0.05% of tigecycline peak)); RRT 0.58 [3]: 0.08%; RRT 0.64 9-Amino [3]: BRL (BRL means below reporting limit (meaning less than 0.05% of tigecycline peak)); RRT 0.74 Epimer [3]: 0.29%; RRT 0.76 [3]: BRL (BRL means below reporting limit (meaning less than 0.05% of tigecycline peak)); RRT 0.78 MW = 557 [3]: BRL (BRL means below reporting limit (meaning less than 0.05% of tigecycline peak)); RRT 1.12 [3]: BRL (BRL means below reporting limit (meaning less than 0.05% of tigecycline peak)); RRT 1.45 [3]: 0.09%; RRT 1.58 [3]: BRL (BRL means below reporting limit (meaning less than 0.05% of tigecycline peak)); RRT 1.64 Mino [3]: 0.09%; RRT 1.67 MW = 556 [3]: (<0.05) %; RRT 1.85 MW = 597 [3]: 0.08%; Strength [3]: 19.193 mg/mL; Total [3]: 0.62%; RRT 1.12 (Run #N, pH 8.2, Oxygen = 0.1 mg/L): BRL (BRL means below reporting limit (meaning less than 0.05% of tigecycline peak)); RRT 0.12 MW = 633 [4]: BRL (BRL means below reporting limit (meaning less than 0.05% of tigecycline peak)); RRT 0.23 MW = 572 [4]: BRL (BRL means below reporting limit (meaning less than 0.05% of tigecycline peak)); RRT 0.50 MW = 601 [4]: BRL (BRL means below reporting limit (meaning less than 0.05% of tigecycline peak)); RRT 0.55 MW = 583 [4]: BRL (BRL means below reporting limit (meaning less than 0.05% of tigecycline peak)); RRT 0.58 [4]: 0.07%; RRT 0.64 9-Amino [4]: BRL (BRL means below reporting limit (meaning less than 0.05% of tigecycline peak)); RRT 0.74 Epimer [4]: 0.20%; RRT 0.76 [4]: BRL (BRL means below reporting limit (meaning less than 0.05% of tigecycline peak)); RRT 0.78 MW = 557 [4]: BRL (BRL means below reporting limit (meaning less than 0.05% of tigecycline peak)); RRT 1.12 [4]: BRL (BRL means below reporting limit (meaning less than 0.05% of tigecycline peak)); RRT 1.45 [4]: 0.07%; RRT 1.58 [4]: BRL (BRL means below reporting limit (meaning less than 0.05% of tigecycline peak)); RRT 1.64 Mino [4]: (<0.05) %; RRT 1.67 MW = 556 [4]: BRL (BRL means below reporting limit (meaning less than 0.05% of tigecycline peak)); RRT 1.85 MW = 597 [4]: 0.11%; Strength [4]: 19.343 mg/mL; Total [4]: 0.46%; RRT 0.12 MW = 633 [5]: BRL (BRL means below reporting limit (meaning less than 0.05% of tigecycline peak)); RRT 0.23 MW = 572 [5]: BRL (BRL means below reporting limit (meaning less than 0.05% of tigecycline peak)); RRT 0.50 MW = 601 [5]: BRL (BRL means below reporting limit (meaning less than 0.05% of tigecycline peak)); RRT 0.55 MW = 583 [5]: 0.06%; RRT 0.58 [5]: 0.06%; RRT 0.64 9-Amino [5]: BRL (BRL means below reporting limit (meaning less than 0.05% of tigecycline peak)); RRT 0.74 Epimer [5]: 0.29%; RRT 0.76 [5]: 0.05%; RRT 0.78 MW = 557 [5]: BRL (BRL means below reporting limit (meaning less than 0.05% of tigecycline peak)); RRT 1.45 [5]: 0.09%; RRT 1.58 [5]: BRL (BRL means below reporting limit (meaning less than 0.05% of tigecycline peak)); RRT 1.64 Mino [5]: 0.08%; RRT 1.67 MW = 556 [5]: BRL (BRL means below reporting limit (meaning less than 0.05% of tigecycline peak)); RRT 1.85 MW = 597 [5]: 0.09%; Strength [5]: 19.415 mg/mL; Total [5]: 0.72%; RRT 0.12 MW = 633 [6]: BRL (BRL means below reporting limit (meaning less than 0.05% of tigecycline peak)); RRT 0.23 MW = 572 [6]: BRL (BRL means below reporting limit (meaning less than 0.05% of tigecycline peak)); RRT 0.50 MW = 601 [6]: BRL (BRL means below reporting limit (meaning less than 0.05% of tigecycline peak)); RRT 0.55 MW = 583 [6]: BRL (BRL means below reporting limit (meaning less than 0.05% of tigecycline peak)); RRT 0.58 [6]: 0.07%; RRT 0.64 9-Amino [6]: BRL (BRL means below reporting limit (meaning less than 0.05% of tigecycline peak)); RRT 0.74 Epimer [6]: 0.21%; RRT 0.76 [6]: BRL (BRL means below reporting limit (meaning less than 0.05% of tigecycline peak))
